Source: publication PMC3907542 (PLoS ONE, 2014)
Several values for one entry are separate records, joined by “and”; a condition that tells them apart may be missing. Equal entries are not always repeated. Where two headings read alike, the source gives them in different places.

Columns and labels:
[1] = test system: plasma proteins; set-up: method as in earlier work; settings: plasma protein binding; ref 1 (Tang Y et al); cited from earlier work
[2] = test system: rat plasma proteins; experiment: Plasma protein binding of nifedipine in vitro with or without baicalin (ultrafiltration); type: in vitro ADME; settings: double reciprocal plot, baicalin 250-2000 mg/L
[3] = Pharmacokinetics of baicalin in rats (plasma Cmax); type: in vivo; settings: Sprague Dawley, rat, iv, read-out: C max of baicalin
Procedure: All pharmacokinetic data were obtained from 12 animals.
The concentration of baicalin in the blood samples was determined using a slightly modified high-performance liquid chromatography (HPLC) protocol with UV detection at 278 nm. Briefly, 100 µl methanol was added to 25 µl of the blood sample. […] The quantitation limits of baicalin in the rat plasma were 5.86 mg/L.

[4] = test system: CYP3A; settings: Lineweaver-Burk plot, RLMs, nifedipine as substrate
Procedure: (§1) The preparation of rat liver microsome (RLM) suspensions were performed as previously reported [38]. […] Briefly, the incubation mixtures (total volume 0.2 ml) contained microsomal protein [...

[5] = test system: CYP3A; experiment: in vitro; settings: rat, rat liver microsomes, pH 7.4, probe nifedipine
Procedure: as §1

O=C(O)[C@H]1O[C@@H](Oc2cc3oc(-c4ccccc4)cc(=O)c3c(O)c2O)[C@H](O)[C@@H](O)[C@@H]1O [baicalin, 5,6-Dihydroxy-flavone-7-O-glucuronide]
association constant (KA) [1]: 121000 L/mol | type of interaction between nifedipine and baicalin for rat plasma proteins [2]: competitive | Cmax ([3]; baicalin 0.225 g/kg i.v.): 755 µg/mL | Cmax ([3]; baicalin 0.45 g/kg i.v.): 1280 µg/mL | type of inhibition of CYP3A [4]: competitive | Ki at 30 min [5]: 146 µM and 64.9 µg/mL
